Test results reported in patent US9962388B2, “Pyrrolopyrimidine compounds used as TLR7 agonist” (priority 2014, dated 2018).

target: Toll-like receptor 7 (Homo sapiens (Human), UniProt Q9NYK1); assay: Toll-like receptor 7 in vitro receptor binding activity screen (HEK-blue hTLR7 cell, alkaline phosphatase/Quanti-Blue readout); assay type: cell-based; conditions: HEK-blue hTLR7 cell, 24 h; read-out: TLR7 EC50
Description: Toll-Like Receptor 7 and Toll-Like Receptor 8 In Vitro Receptor Binding Activity Screen
HEK-blue hTLR7 cell and HEK-blue hTLR8 cell (available from InvivoGen)
1. Preparation of 96-well compound plate:
The compounds were gradient diluted with DMSO in 3-fold using liquid work station POD starting at a concentration of 10 mmol/L and 10 points were diluted (2nd column to 11th column, and each point was duplicated). At 12th column, 1 μL of 5 mg/mL positive compound R848 was added as positive control; and at 1st column, 1 μL of DMSO was added as negative control. Each well contained 1 μL of DMSO.
2. The cells in culture flask were collected and the cell density was diluted to 250,000 cells/mL.
3. 200 μL (50,000 cells/well) of cell suspension was added into prepared compound plate and the final concentration of DMSO in each well was 0.5%.
4. The culture plates containing cells and the compounds were incubated in CO2 incubator for 24 h at 37° C., 5% CO2.
5. After 24 h incubation, 20 μL of supernatant was removed from each well to a 96-well transparent assay plate. To each well of the assay plate was added 180 μL of Quanti-Blue reagent and the plate was incubated in an incubator at 37° C., 5% CO2 for 1 h.
6. After 1 h, the content of alkaline phosphatase in 20 μL of supernatant was determined using Microplate Reader OD650.
7. EC50 of each compound was obtained with Prism software.

Chain of Toll-like receptor 7 (Q9NYK1 27-1049): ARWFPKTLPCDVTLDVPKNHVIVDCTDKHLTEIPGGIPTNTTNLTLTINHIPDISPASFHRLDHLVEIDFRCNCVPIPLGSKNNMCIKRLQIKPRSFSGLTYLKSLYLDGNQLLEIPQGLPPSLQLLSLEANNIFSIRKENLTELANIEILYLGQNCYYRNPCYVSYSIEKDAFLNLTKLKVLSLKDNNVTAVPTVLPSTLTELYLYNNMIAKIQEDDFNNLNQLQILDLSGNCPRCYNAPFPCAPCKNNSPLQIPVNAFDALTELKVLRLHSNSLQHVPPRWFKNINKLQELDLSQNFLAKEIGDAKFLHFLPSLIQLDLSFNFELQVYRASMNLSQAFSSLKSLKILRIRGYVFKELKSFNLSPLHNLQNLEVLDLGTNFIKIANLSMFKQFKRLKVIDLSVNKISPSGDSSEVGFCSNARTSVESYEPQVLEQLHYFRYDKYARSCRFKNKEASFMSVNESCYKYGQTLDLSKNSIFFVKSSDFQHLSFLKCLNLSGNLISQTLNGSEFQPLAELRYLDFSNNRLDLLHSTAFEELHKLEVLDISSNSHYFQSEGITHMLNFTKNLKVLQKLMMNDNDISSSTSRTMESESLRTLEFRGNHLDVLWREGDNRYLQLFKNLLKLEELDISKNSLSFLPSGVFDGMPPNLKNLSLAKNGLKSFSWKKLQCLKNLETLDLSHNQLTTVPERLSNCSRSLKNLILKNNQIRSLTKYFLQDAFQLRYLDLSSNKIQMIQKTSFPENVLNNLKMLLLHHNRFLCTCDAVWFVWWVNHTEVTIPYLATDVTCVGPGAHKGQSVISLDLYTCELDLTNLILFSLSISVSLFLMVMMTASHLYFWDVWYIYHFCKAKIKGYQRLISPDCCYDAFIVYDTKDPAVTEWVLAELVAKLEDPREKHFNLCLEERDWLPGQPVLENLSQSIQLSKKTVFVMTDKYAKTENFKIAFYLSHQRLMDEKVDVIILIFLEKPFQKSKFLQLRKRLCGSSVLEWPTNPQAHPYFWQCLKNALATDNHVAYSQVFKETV

`CCCCOc1nc(N)c2[nH]cc(Cc3cccc(CN4CCN(C)CC4)c3)c2n1` [Example 1, 2-butoxy-7-(3-((4-methylpiperazine-1-yl)methyl)benzyl)-5H-pyrrolo[3,2-d]pyrimidine-4-amine] and `CCCCOc1nc(N)c2[nH]cc(Cc3ccc(CN4CCN(C)CC4)cc3)c2n1` [Example 10, 2-butoxy-7-(4-((4-methylpiperazine-1-yl)methyl)benzyl)-5H-pyrrolo[3,2-d]pyrimidine-4-amine] fall in the same range of EC50: 1 to 50 µM for the first, 1 to 50 µM for the second.

`CCCCOc1nc(N)c2[nH]cc(Cc3cccc(CN4CCOCC4)c3)c2n1` [Example 2, 2-butoxy-7-(3-(morpholinomethyl)benzyl)-5H-pyrrolo[3,2-d]pyrimidine-4-amine] and `CCCCOc1nc(N)c2[nH]cc(Cc3ccc(CN4CCOCC4)cc3)c2n1` [Example 9, 2-butoxy-7-(4-(morpholinomethyl)benzyl)-5H-pyrrolo[3,2-d]pyrimidine-4-amine] fall in the same range of EC50: 1 to 50 µM for the first, 1 to 50 µM for the second.

`CCCCOc1nc(N)c2[nH]cc(Cc3cccc(CN)c3)c2n1` [Example 3, 7-(3-(aminomethyl)benzyl)-2-butoxy-5H-pyrrolo[3,2-d]pyrimidine-4-amine] and `CCCCOc1nc(N)c2[nH]cc(Cc3cccc(CCN4CCCC4)c3)c2n1` [Example 23, 2-butoxy-7-(3-(2-(pyrrolidine-1-yl)ethyl)benzyl)-5H-pyrrolo[3,2-d]pyrimidine-4-amine] fall in the same range of EC50: 1 to 50 µM for the first, 1 to 50 µM for the second.

Compared with `CCCCOc1nc(N)c2[nH]cc(Cc3ccc(CN4CCC(F)(F)C4)cc3)c2n1` [Example 5], `CCCCOc1nc(N)c2[nH]cc(Cc3ccc(CN4CCC4)cc3)c2n1` [Example 14, 7-(4-(azetidin-1-ylmethyl)benzyl)-2-butoxy-5H-pyrrolo[3,2-d]pyrimidine-4-amine] is lower in EC50: 1 to 50 µM for the first, 0.1 to 1 µM for the second. The second is the more potent here.

`CCCCOc1nc(N)c2[nH]cc(Cc3ccc(CN4CCC(F)C4)cc3)c2n1` (stereo not shown) [Example 6, 2-butoxy-7-(4-((3-fluoropyrrolidine-1-yl)methyl)benzyl)-5H-pyrrolo[3,2-d]pyrimidine-4-amine] and `CCCCOc1nc(N)c2[nH]cc(Cc3ccc(CN4CCC(O)C4)cc3)c2n1` (stereo not shown) [Example 7, 1-(4-((4-amino-2-butoxy-5H-pyrrolo[3,2-d]pyrimidine-7-1)methyl)benzyl)pyrrolidine-3-ol] fall in the same range of EC50: 0.1 to 1 µM for the first, 0.1 to 1 µM for the second.

`CCCCOc1nc(N)c2[nH]cc(Cc3ccc(CN4CCCCC4)cc3)c2n1` [Example 8, 2-butoxy-7-(4-(piperidine-1-ylmethyl)benzyl)-5H-pyrrolo[3,2-d]pyrimidine-4-amine] and `CCCCOc1nc(N)c2[nH]cc(Cc3ccc(CN4CCCN(C)CC4)cc3)c2n1` [Example 16, 2-butoxy-7-(4-((4-methyl-1,4-diazepan-1-yl)methyl)benzyl)-5H-pyrrolo[3,2-d]pyrimidine-4-amine] fall in the same range of EC50: 0.1 to 1 µM for the first, 0.1 to 1 µM for the second.

`CCCCOc1nc(N)c2[nH]cc(Cc3ccc(CN(C)C)cc3)c2n1` [Example 11, 2-butoxy-7-(4-((dimethylamino)methyl)benzyl)-5H-pyrrolo[3,2-d]pyrimidine-4-amine] and `CCCCOc1nc(N)c2[nH]cc(Cc3ccc(CN(CC)CC)cc3)c2n1` [Example 12, 2-butoxy-7-(4-((diethylamino)methyl)benzyl)-5H-pyrrolo[3,2-d]pyrimidine-4-amine] fall in the same range of EC50: 0.1 to 1 µM for the first, 0.1 to 1 µM for the second.

`CCCCOc1nc(N)c2[nH]cc(Cc3ccc(CN(CCC)CCC)cc3)c2n1` [Example 13, 2-butoxy-7-(4-((dipropylamino)methyl)benzyl)-5H-pyrrolo[3,2-d]pyrimidine-4-amine] and `CCCCOc1nc(N)c2[nH]cc(Cc3ccc(CN4CC(OC)C4)cc3)c2n1` [Example 15, 2-butoxy-7-(4-((3-methoxylazetidin-1-yl)methyl)benzyl)-5H-pyrrolo[3,2-d]pyrimidine-4-amine] fall in the same range of EC50: 0.1 to 1 µM for the first, 0.1 to 1 µM for the second.

`CCCCOc1nc(N)c2[nH]cc(Cc3ccc(CN4CC(C)OC(C)C4)cc3)c2n1` (stereo not shown) [Example 17, 2-butoxy-7-(4-((2,6-dimethylmorpholinyl)methyl)benzyl)-5H-pyrrolo[3,2-d]pyrimidine-4-amine] and `CCCCOc1nc(N)c2[nH]cc(Cc3ccc(CN4C[C@@H]5C[C@H]4CO5)cc3)c2n1` [Example 18, 7-(4-((1 S,4S)-2-oxa-5-azabicyclo[2.2.1]heptane-5-ylmethyl)benzyl)-2-butoxy-5H-pyrrolo[3,2-d]pyrimidine-4-amine] fall in the same range of EC50: 0.1 to 1 µM for the first, 0.1 to 1 µM for the second.

`CCCCOc1nc(N)c2[nH]cc(Cc3ccc(CN4CCC(OC)CC4)cc3)c2n1` [Example 19, 2-butoxy-7-(4-((4-methoxylpiperidine-1-yl)methyl)benzyl)-5H-pyrrolo[3,2-d]pyrimidine-4-amine] and `CCCCOc1nc(N)c2[nH]cc(Cc3ccc(CN4CCN(C(C)C)CC4)cc3)c2n1` [Example 20, 2-butoxy-7-(4-((4-isopropylpiperazine-1-yl)methyl)benzyl)-5H-pyrrolo[3,2-d]pyrimidine-4-amine] fall in the same range of EC50: 0.1 to 1 µM for the first, 0.1 to 1 µM for the second.

`CCCCOc1nc(N)c2[nH]cc(Cc3ccc(C(C)N4CCCC4)cc3)c2n1` (stereo not shown) [Example 24, 2-butoxy-7-(4-(1-(pyrrolidine-1-yl)ethyl)benzyl)-5H-pyrrolo[3,2-d]pyrimidine-4-amine] and `CCCCOc1nc(N)c2[nH]cc(Cc3ccc(C4CCCN4C)cc3)c2n1` (stereo not shown) [Example 26, 2-butoxy-7-(4-(1-methylpyrrolidine-2-yl)benzyl)-5H-pyrrolo[3,2-d]pyrimidine-4-amine] fall in the same range of EC50: 0.1 to 1 µM for the first, 0.1 to 1 µM for the second.

First: CCCCOc1nc(N)c2[nH]cc(Cc3ccc(C4CCN(C)CC4)cc3)c2n1 [Example 25, 2-butoxy-7-(4-(1-methylpiperidine-4-yl)benzyl)-5H-pyrrolo[3,2-d]pyrimidine-4-amine]
Second: CCCCOc1nc(N)c2[nH]cc(Cc3ccc(N4CCN(C)CC4=O)cc3)c2n1 [Example 27, 1-(4-((4-amino-2-butoxy-5H-pyrrolo[3,2-d]pyrimidine-7-yl)methyl)phenyl)-4-methylpiperazine-2-one]
The EC50 of the first is lower: 0.001 to 0.1 µM for the first, 0.1 to 1 µM for the second.

`CCCCOc1nc(N)c2[nH]cc(Cc3ccc4c(c3)CCNC4)c2n1` [Example 32, 2-butoxy-7-((1,2,3,4-tetrahydroisoquinoline-6-yl)methyl)-5H-pyrrolo[3,2-d]pyrimidine-4-amine] and `CCCCOc1nc(N)c2[nH]cc(Cc3ccc4c(c3)CCN(C)C4)c2n1` [Example 33, 2-butoxy-7-((2-methyl-1,2,3,4-tetrahydroisoquinoline-6-yl)methyl)-5H-pyrrolo[3,2-d]pyrimidine-4-amine] fall in the same range of EC50: 0.1 to 1 µM for the first, 0.1 to 1 µM for the second.

`CCCCOc1nc(N)c2[nH]cc(Cc3ccc4c(c3)CCN(CC)C4)c2n1` [Example 34, 2-butoxy-7-((2-ethyl-1,2,3,4-tetrahydroisoquinoline-6-yl)methyl)-5H-pyrrolo[3,2-d]pyrimidine-4-amine] and `CCCCOc1nc(N)c2[nH]cc(Cc3ccc(CN4CCCC4)cn3)c2n1` [Example 40, 2-butoxy-7-((5-(pyrrolidine-1-ylmethyl)pyridine-2-yl)methyl)-5H-pyrrolo[3,2-d]pyrimidine-4-amine] fall in the same range of EC50: 0.1 to 1 µM for the first, 0.1 to 1 µM for the second.

`COCCOc1nc(N)c2[nH]cc(Cc3ccccc3)c2n1` [Example 35, 7-benzyl-2-(2-methoxylethoxyl)-5H-pyrrolo[3,2-d]pyrimidine-4-amine] and `COCCOc1nc(N)c2[nH]cc(Cc3ccc(C)nc3)c2n1` [Example 36, 2-(2-methoxylethoxyl)-7-((6-methylpyridine-3-yl)methyl)-5H-pyrrolo[3,2-d]pyrimidine-4-amine] fall in the same range of EC50: 1 to 50 µM for the first, 1 to 50 µM for the second.

First: COCCOc1nc(N)c2[nH]cc(Cc3ccc(Cl)cn3)c2n1 [Example 37, 7-((5-chloropyridine-2-yl)methyl)-2-(2-methoxylethoxyl)-5H-pyrrolo[3,2-d]pyrimidine-4-amine]
Second: COCCOc1nc(N)c2[nH]cc(Cc3ccc(CN4CCCC4)nc3)c2n1 [Example 38, 2-(2-methoxylethoxyl-)-7-((6-(pyrrolidine-1-ylmethyl)pyridine-3-yl)methyl)-5H-pyrrolo[3,2-d]pyrimidine-4-amine]
The EC50 of the first is higher: 1 to 50 µM for the first, 0.1 to 1 µM for the second.

First: COCCOc1nc(N)c2[nH]cc(Cc3ccc(N4CCN(C)CC4=O)cc3)c2n1 [Example 39, 1-(4-((4-amino-2-(2-methoxylethoxyl)-5H-pyrrolo[3,2-d]pyrimidine-7-yl)methyl)phenyl)-4-methylpiperazine-2-one]
Second: CCCCOc1nc(N)c2[nH]c(C#N)c(Cc3ccc(CN4CCN(C)CC4)cc3)c2n1 [Example 44, 4-amino-2-butoxy-7-(4-((4-methylpiperazine-1-yl)methyl)benzyl)-5H-pyrrolo[3,2-d]pyrimidine-6-carbonitrile]
The EC50 of the first is higher: 0.1 to 1 µM for the first, 0.001 to 0.1 µM for the second. The second is the more potent here.

`CCCCOc1nc(N)c2[nH]c(C#N)c(Cc3ccc(CN4CCCC4)nc3)c2n1` [Example 41, 4-amino-2-butoxy-7-((6-(pyrrolidine-1-ylmethyl)pyridine-3-yl)methyl)-5H-pyrrolo[3,2-d]pyrimidine-6-carbonitrile] and `CCCCOc1nc(N)c2[nH]c(C#N)c(Cc3ccc(CN4CCOCC4)cc3)c2n1` [Example 43, 4-amino-2-butoxy-7-(4-(morpholinomethyl)benzyl)-5H-pyrrolo[3,2-d]pyrimidine-6-carbonitrile] fall in the same range of EC50: 0.001 to 0.1 µM for the first, 0.001 to 0.1 µM for the second.

Work on `CCCCOc1nc(N)c2[nH]c(C(N)=O)c(Cc3ccc(CN4CCCC4)cc3)c2n1` [Example 45, 4-amino-2-butoxy-7-(4-(pyrrolidine-1-ylmethyl)benzyl)-5H-pyrrolo[3,2-d]pyrimidine-6-formamide] yielded an EC50 of 0.1 to 1 µM.
